Data published in patent US8501783B2, “Conformationally restricted urea inhibitors of soluble epoxide hydrolase” (The Regents of the University of California, priority 2006, dated 2013).
Like-named read-outs stand apart in the source and are kept apart here. Each block holds one compound with its values, some of them ahead of it.

Legend:
[1] = target: human sEH (Homo sapiens (Human), UniProt P34913); test: Inhibition of human soluble epoxide hydrolase (IC50; one of three substrate methods); assay type: biochemical;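 further: enzyme expressed in baculovirus and affinity-purified, assays run in triplicate, with substrate and read-out differing among the three methods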
[2] = Solubility in oil of the dosing preparation (compound in Crisco); assay type: physicochemical; conditions: appearance in oil, in parentheses after compound number
From the text: The dogs are fed immediately thereafter.

[3] = Pharmacokinetic screening in dogs, oral administration, plasma LC-MS/MS; conditions: for AUC: dog, plasma, po; for AUCINF_D_pred: dose-normalised; for LC/MS analysis, plasma level at time 0 / LC/MS analysis, plasma level at time 15 / LC/MS analysis, plasma level at time 30 / LC/MS analysis, plasma level at time 60 / LC/MS analysis, plasma level at time 120 / LC/MS analysis, plasma level at time 180 / LC/MS analysis, plasma level at time 240 / LC/MS analysis, plasma level at time 300 / LC/MS analysis, plasma level at time 360 / LC/MS analysis, plasma level at time 480 / LC/MS analysis, plasma level at time 1440: single oral dose (0.3 mg/kg per FIG. 1)

human sEH, sequence (P34913 whole entry): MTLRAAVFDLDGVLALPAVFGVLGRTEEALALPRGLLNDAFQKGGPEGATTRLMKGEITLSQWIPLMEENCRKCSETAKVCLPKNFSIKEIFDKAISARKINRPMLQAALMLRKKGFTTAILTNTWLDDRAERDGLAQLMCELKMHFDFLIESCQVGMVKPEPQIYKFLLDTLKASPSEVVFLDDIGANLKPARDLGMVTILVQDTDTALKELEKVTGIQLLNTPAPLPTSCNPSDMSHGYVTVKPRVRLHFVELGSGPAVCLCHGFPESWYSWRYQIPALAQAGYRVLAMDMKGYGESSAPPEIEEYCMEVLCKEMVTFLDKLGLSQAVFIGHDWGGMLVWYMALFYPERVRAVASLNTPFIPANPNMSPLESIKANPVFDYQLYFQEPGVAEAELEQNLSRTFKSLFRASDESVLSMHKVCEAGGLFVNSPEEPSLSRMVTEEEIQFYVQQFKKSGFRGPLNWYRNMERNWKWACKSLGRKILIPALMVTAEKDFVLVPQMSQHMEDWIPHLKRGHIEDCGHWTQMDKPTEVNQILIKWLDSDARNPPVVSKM

Structure (SMILES): CCC(=O)N1CCC(NC(=O)NC23CC4CC(CC(C4)C2)C3)CC1 [Compound 1163, N-(1-propionylpiperidin-4-yl)-N′-(adamant-1-yl)urea]
IC50 [1]: 3.19 nM
solubility in oil [2]: 1163 (Opaque)
AUC ([3]; 0.3 mg/kg): 0.0933 µM·h
AUCINF_D_pred ([3]; dogs, oral): 18504 kg·nM·min/mg
LC/MS analysis, plasma level at time 0 ([3]; dogs, time 0 min): 0.00
LC/MS analysis, plasma level at time 15 ([3]; dogs, time 15 min): 5.70
LC/MS analysis, plasma level at time 30 ([3]; dogs, time 30 min): 16.05
LC/MS analysis, plasma level at time 60 ([3]; dogs, time 60 min): 31.79
LC/MS analysis, plasma level at time 120 ([3]; dogs, time 120 min): 24.00
LC/MS analysis, plasma level at time 180 ([3]; dogs, time 180 min): 14.55
LC/MS analysis, plasma level at time 240 ([3]; dogs, time 240 min): 10.05
LC/MS analysis, plasma level at time 300 ([3]; dogs, time 300 min): 7.20
LC/MS analysis, plasma level at time 360 ([3]; dogs, time 360 min): 4.95
LC/MS analysis, plasma level at time 480 ([3]; dogs, time 480 min): 1.50
LC/MS analysis, plasma level at time 1440 ([3]; dogs, time 1440 min): 0.00

Structure (SMILES): CC(=O)N1CCC(NC(=O)CC23CC4CC(CC(C4)C2)C3)CC1 [Compound 1642]
IC50 ([1]; recombinant human sEH): 275 nM
AUC ([3]; 0.3 mg/kg): 0.0967 µM·h

Structure (SMILES): O=C(NC1CCN(C(=O)c2cccnc2)CC1)NC12CC3CC(CC(C3)C1)C2 [Compound 1434, N-(1-(Pyridine-3-carbonyl)piperidin-4-yl)-N′-(adamant-1-yl)urea]
IC50 [1]: 2.1 nM

Structure (SMILES): Cc1c(COC(=O)NCc2ccncc2)cccc1-c1ccccc1 [Compound 1558, Pyridin-4-ylmethyl-carbamic acid 2-methyl-biphenyl-3-ylmethyl ester]
IC50 ([1]; recombinant human sEH): 1330 nM

Structure (SMILES): O=C(NC1CCN(C(=O)c2ccccc2C(=O)O)CC1)NC12CC3CC(CC(C3)C1)C2 [Compound 1507, 2-[4-(3-Adamantan-1-yl-ureido)-piperidine-1-carbonyl]-benzoic acid]
IC50 [1]: 161 nM

Structure (SMILES): CS(=O)(=O)N1CCC(NC(=O)NC23CC4CC(CC(C4)C2)C3)CC1 [Compound 1701, 1-Adamantan-1-yl-3-(1-methanesulfonyl-piperidin-4-yl)-urea]
IC50 ([1]; recombinant human sEH): 1.4 nM
AUC ([3]; 0.3 mg/kg): 0.0817 µM·h

The next lines start with the values.

IC50 ([1]; recombinant human sEH): 1.2 nM
solubility in oil [2]: 1201 (Suspension)
AUC ([3]; 0.3 mg/kg): 0.08 µM·h
AUCINF_D_pred ([3]; dogs, oral): 16100 kg·nM·min/mg
LC/MS analysis, plasma level at time 0 ([3]; dogs, time 0 min): 0.00
LC/MS analysis, plasma level at time 15 ([3]; dogs, time 15 min): 9.19
LC/MS analysis, plasma level at time 30 ([3]; dogs, time 30 min): 32.65
LC/MS analysis, plasma level at time 60 ([3]; dogs, time 60 min): 42.48
LC/MS analysis, plasma level at time 120 ([3]; dogs, time 120 min): 21.09
LC/MS analysis, plasma level at time 180 ([3]; dogs, time 180 min): 7.15
LC/MS analysis, plasma level at time 240 ([3]; dogs, time 240 min): 3.16
LC/MS analysis, plasma level at time 300 ([3]; dogs, time 300 min): 1.72
LC/MS analysis, plasma level at time 360 ([3]; dogs, time 360 min): 0.00
LC/MS analysis, plasma level at time 480 ([3]; dogs, time 480 min): 0.00
LC/MS analysis, plasma level at time 1440 ([3]; dogs, time 1440 min): 0.00
Structure (SMILES): O=C(NC1CCN(C(=O)c2ccccn2)CC1)NC12CC3CC(CC(C3)C1)C2 [Compound 1201, N-(1-(Pyridine-2-carbonyl)piperidin-4-yl)-N′-(adamant-1-yl)urea]

solubility in oil [2]: 1606 (Suspension)
AUC ([3]; 0.3 mg/kg): 0.0433 µM·h
AUCINF_D_pred ([3]; dogs, oral): 8553 kg·nM·min/mg
LC/MS analysis, plasma level at time 0 ([3]; dogs, time 0 min): 0.00
LC/MS analysis, plasma level at time 15 ([3]; dogs, time 15 min): 0.00
LC/MS analysis, plasma level at time 30 ([3]; dogs, time 30 min): 1.61
LC/MS analysis, plasma level at time 60 ([3]; dogs, time 60 min): 4.82
LC/MS analysis, plasma level at time 120 ([3]; dogs, time 120 min): 9.37
LC/MS analysis, plasma level at time 180 ([3]; dogs, time 180 min): 10.98
LC/MS analysis, plasma level at time 240 ([3]; dogs, time 240 min): 6.83
LC/MS analysis, plasma level at time 300 ([3]; dogs, time 300 min): 5.62
LC/MS analysis, plasma level at time 360 ([3]; dogs, time 360 min): 3.21
LC/MS analysis, plasma level at time 480 ([3]; dogs, time 480 min): 1.47
Structure (SMILES): O=C(NC1CCN(C(=O)C(F)(F)F)CC1)NC12CC3CC(CC(C3)C1)C2 [Compound 1606]

IC50 ([1]; recombinant human sEH): 0.9 nM
AUC ([3]; 0.3 mg/kg): 0.09 µM·h
Structure (SMILES): COC(=O)N1CCC(NC(=O)NC23CC4CC(CC(C4)C2)C3)CC1 [Compound 1702, 4-(3-Adamantan-1-yl-ureido)-piperidine-1-carboxylic acid methyl ester]

solubility in oil [2]: 1153 (Opaque)
AUC ([3]; 0.3 mg/kg): 0.597 µM·h
plasma level, in solution at 0.1 mg/kg dose, time 0 ([3]; dogs, oral, 0.1 mg/kg, time 0 min): 0.31
plasma level, in solution at 0.1 mg/kg dose, time 15 ([3]; dogs, oral, 0.1 mg/kg, time 15 min): 5.33
plasma level, in solution at 0.1 mg/kg dose, time 30 ([3]; dogs, oral, 0.1 mg/kg, time 30 min): 19.59
plasma level, in solution at 0.1 mg/kg dose, time 60 ([3]; dogs, oral, 0.1 mg/kg, time 60 min): 56.74
plasma level, in solution at 0.1 mg/kg dose, time 120 ([3]; dogs, oral, 0.1 mg/kg, time 120 min): 106.43
plasma level, in solution at 0.1 mg/kg dose, time 180 ([3]; dogs, oral, 0.1 mg/kg, time 180 min): 100.94
plasma level, in solution at 0.1 mg/kg dose, time 240 ([3]; dogs, oral, 0.1 mg/kg, time 240 min): 75.71
plasma level, in solution at 0.1 mg/kg dose, time 300 ([3]; dogs, oral, 0.1 mg/kg, time 300 min): 44.51
plasma level, in solution at 0.1 mg/kg dose, time 360 ([3]; dogs, oral, 0.1 mg/kg, time 360 min): 29.15
plasma level, in solution at 0.1 mg/kg dose, time 480 ([3]; dogs, oral, 0.1 mg/kg, time 480 min): 13.01
plasma level, in solution at 0.1 mg/kg dose, time 1440 ([3]; dogs, oral, 0.1 mg/kg, time 1440 min): 0.00
plasma level, in solution at 0.3 mg/kg dose, time 0 ([3]; dogs, oral, 0.3 mg/kg, time 0 min): 0.00
plasma level, in solution at 0.3 mg/kg dose, time 15 ([3]; dogs, oral, 0.3 mg/kg, time 15 min): 288.97
plasma level, in solution at 0.3 mg/kg dose, time 30 ([3]; dogs, oral, 0.3 mg/kg, time 30 min): 276.16
plasma level, in solution at 0.3 mg/kg dose, time 60 ([3]; dogs, oral, 0.3 mg/kg, time 60 min): 241.03
plasma level, in solution at 0.3 mg/kg dose, time 120 ([3]; dogs, oral, 0.3 mg/kg, time 120 min): 107.19
plasma level, in solution at 0.3 mg/kg dose, time 180 ([3]; dogs, oral, 0.3 mg/kg, time 180 min): 56.41
plasma level, in solution at 0.3 mg/kg dose, time 240 ([3]; dogs, oral, 0.3 mg/kg, time 240 min): 26.42
plasma level, in solution at 0.3 mg/kg dose, time 300 ([3]; dogs, oral, 0.3 mg/kg, time 300 min): 20.81
plasma level, in solution at 0.3 mg/kg dose, time 360 ([3]; dogs, oral, 0.3 mg/kg, time 360 min): 10.10
plasma level, in solution at 0.3 mg/kg dose, time 480 ([3]; dogs, oral, 0.3 mg/kg, time 480 min): 4.66
plasma level, in solution at 0.3 mg/kg dose, time 1440 ([3]; dogs, oral, 0.3 mg/kg, time 1440 min): 0.00
AUCINF_D_pred ([3]; dogs, oral): 119214 kg·nM·min/mg
LC/MS analysis, plasma level at time 0 ([3]; dogs, time 0 min): 0.00
LC/MS analysis, plasma level at time 15 ([3]; dogs, time 15 min): 288.97
LC/MS analysis, plasma level at time 30 ([3]; dogs, time 30 min): 276.16
LC/MS analysis, plasma level at time 60 ([3]; dogs, time 60 min): 2411.03
LC/MS analysis, plasma level at time 120 ([3]; dogs, time 120 min): 107.19
LC/MS analysis, plasma level at time 180 ([3]; dogs, time 180 min): 56.41
LC/MS analysis, plasma level at time 240 ([3]; dogs, time 240 min): 26.42
LC/MS analysis, plasma level at time 300 ([3]; dogs, time 300 min): 20.81
LC/MS analysis, plasma level at time 360 ([3]; dogs, time 360 min): 10.10
LC/MS analysis, plasma level at time 480 ([3]; dogs, time 480 min): 4.66
LC/MS analysis, plasma level at time 1440 ([3]; dogs, time 1440 min): 0.00
Structure (SMILES): CC(=O)N1CCC(NC(=O)NC23CC4CC(CC(C4)C2)C3)CC1 [Compound 1153, N-(1-acetylpiperidin-4-yl)-N′-(adamant-1-yl)urea]

IC50 ([1]; recombinant human sEH): 65300 nM
Structure (SMILES): O=C(Oc1cccc(-c2ccccc2)c1)N1CCOCC1 [Compound 1561, Morpholine-4-carboxylic acid biphenyl-3-yl ester]

IC50 ([1]; recombinant human sEH): 4.8 nM
Structure (SMILES): O=C(NC1CCN(C(=O)c2ccccc2)CC1)NC1CCN(C(=O)c2ccccc2)CC1 [Compound 1605, 1,3-Bis-(1-benzoyl-piperidin-4-yl)urea]

solubility in oil [2]: 1555 (Opaque)
AUC ([3]; 0.3 mg/kg): 6.5 µM·h
AUCINF_D_pred ([3]; dogs, oral): 13002825 kg·nM·min/mg
LC/MS analysis, plasma level at time 0 ([3]; dogs, time 0 min): 0.00
LC/MS analysis, plasma level at time 15 ([3]; dogs, time 15 min): 16.07
LC/MS analysis, plasma level at time 30 ([3]; dogs, time 30 min): 45.76
LC/MS analysis, plasma level at time 60 ([3]; dogs, time 60 min): 100.35
LC/MS analysis, plasma level at time 120 ([3]; dogs, time 120 min): 216.91
LC/MS analysis, plasma level at time 180 ([3]; dogs, time 180 min): 260.79
LC/MS analysis, plasma level at time 240 ([3]; dogs, time 240 min): 268.90
LC/MS analysis, plasma level at time 300 ([3]; dogs, time 300 min): 302.64
LC/MS analysis, plasma level at time 480 ([3]; dogs, time 480 min): 320.45
LC/MS analysis, plasma level at time 1440 ([3]; dogs, time 1440 min): 266.29
Structure (SMILES): CC(=O)N1CCC(NC(=O)Nc2ccc(OC(F)(F)F)cc2)CC1 [Compound 1555, 1-(1-Acetyl-piperidin-4-yl)-3-(4-trifluoromethoxy-phenyl)-urea]
